According to EP4548971A1, “1,4-BENZOTHIAZEPINES AND RELATED COMPOUNDS WITH CYCLOPROPANOL GROUPS AS MULTI-TARGETED DRUGS” (Georg-August-Universität Göttingen Stiftung Öffentlichen …, priority 2023, dated 2025):

Experiments:
[1] = system: saponin-permeabilized ventricular cardiomyocytes (sp-vCM) from RyR2R2474S/+ mice; experiment: Ca2+ wave decay in saponin-permeabilized ventricular cardiomyocytes, RyR2R2474S/+ mice; assay type: cell-based; settings: 10 µM, result in words
From the text: (§1) • Figure 1: Synthesis scheme showing the synthesis of multifunctional compounds with cyclopropanol residues based on 1,4 -benzothiazepines. The respective reaction conditions (a) to (i) are as follows: (a) Jones reagent, aceton; (b) H2SO4, EtOH; (c) EtMgBr, Ti(OiPr)4, EtzO; (d) t-BuMe2SiOSO2CF3, 2,6-lutidine, DCM; (e) Hz, Pd/C, THF; (f) Dess-Martin reagent, DCM; (g) K2CO3, 1,4-dioxane; (h) N2H4*H2O, EtOH; (i) Na(CH3COO)3BH, 1,2-dichloroethane; (j) NaH, DMF; (k) aq. HF (55%), MeCN or 1 M n-Bu4NF in THF or KF, Et3N*HCl, MeOH. m,n = 2-8. • Figure 2: Synthesis scheme showing the synthesis of multifunctional compounds with cyclopropanol residues based on the "open" analogs 1,4 -benzothiazepines (i.e. 3-[(4-methoxyphenyl)oxy]-and 3-[(4-methoxyphenylthio)]propane-1-amine derivatives). […] Values represent the mean ± S.D., *** P < 0.0005, **** P < 0.0001 vs. DMSO by unpaired t test; n = 6 - 28. • Figure 6: Time-lapse fluorescence measurements using TECAN Spark 20M plate reader with HEK293 cells expressing WT RyR2 and R-CEPIA1er indicator. […] Fluorescence ratio F/F0, where F0 - average fluorescence signal for the first 90 seconds, F- average fluorescence signal for the last 100 s, was taken for the calculations. […] Data sets were analyzed by unpaired Student's t-test. n.s. non-significant with P=0.59 for Dan, **, P<0.01 with P=0.003 for S36, and *, P<0.05 with P=0.019 for GM1869; (D, E, F) Relative changes in the decay time tau of Ca2+ transients from spontaneous Ca2+ waves (in control/drug) by Dan (D, 10µM), S36 (E, 10 µM), and GM1869 (F, 10 µM) in cardiomyocytes from WT and RyR2R2474S/+ mice. […] Rise times represent the tau values calculated by a mono-exponential fit of the Ca2+ transients from start to the peak of the signal. Ca2+ transients were recorded in control conditions and every 2 min (S36) or 4 min (GM1869) after drug application. **, P = 0.0065 for S36; ****, P = 0.000019 for GM1869, evaluated by paired Student's t-test. […] Decay times represent the tau values calculated by a mono-exponential fit of the Ca2+ transients from half maximum to baseline of the signal. […]

[2] = system: RyR2-WT iPSC cardiomyocytes; experiment: Electrically induced Ca2+ transients in intact iPSC-derived cardiomyocytes, RyR2-WT; assay type: cell-based, human; settings: estimated from non-linear fit; for IC50: read-out: IC50 values for the rise times of Ca2+ transients
From the text: (§2) • Figure 1: Synthesis scheme showing the synthesis of multifunctional compounds with cyclopropanol residues based on 1,4 -benzothiazepines. The respective reaction conditions […] are as follows: (a) Jones reagent, aceton; (b) H2SO4, EtOH; (c) EtMgBr, Ti(OiPr)4, EtzO; (d) t-BuMe2SiOSO2CF3, 2,6-lutidine, DCM; (e) Hz, Pd/C, THF; (f) Dess-Martin reagent, DCM; (g) K2CO3, 1,4-dioxane; (h) N2H4*H2O, EtOH; (i) Na(CH3COO)3BH, 1,2-dichloroethane; (j) NaH, DMF; (k) aq. HF (55%), MeCN or 1 M n-Bu4NF in THF or KF, Et3N*HCl, MeOH. m,n = 2-8. • Figure 2: Synthesis scheme showing the synthesis of multifunctional compounds with cyclopropanol residues based on the "open" analogs 1,4 -benzothiazepines (i.e. 3-[(4-methoxyphenyl)oxy]-and 3-[(4-methoxyphenylthio)]propane-1-amine derivatives). […] Values represent the mean ± S.D., *** P < 0.0005, **** P < 0.0001 vs. DMSO by unpaired t test; n = 6 - 28. • Figure 6: Time-lapse fluorescence measurements using TECAN Spark 20M plate reader with HEK293 cells expressing WT RyR2 and R-CEPIA1er indicator. (a) R-CEPIA1er assay, control (0.1 v/v% DMSO) or 100 µM of compound 14a was injected at 90 seconds (arrow). Fluorescence ratio F/F0, where F0 - average fluorescence signal for the first 90 seconds, F- average fluorescence signal for the last 100 s, was taken for the calculations. (b-d) Dose-response effects of compounds 13 and 14 on [Ca^2+]ER in HEK293-RyR2-R-CEPIA1er cells. […] Data sets were analyzed by unpaired Student's t-test. n.s. non-significant with P=0.59 for Dan, **, P<0.01 with P=0.003 for S36, and *, P<0.05 with P=0.019 for GM1869; (D, E, F) Relative changes in the decay time tau of Ca2+ transients from spontaneous Ca2+ waves (in control/drug) by Dan (D, 10µM), S36 (E, 10 µM), and GM1869 (F, 10 µM) in cardiomyocytes from WT and RyR2R2474S/+ mice. […] Rise times represent the tau values calculated by a mono-exponential fit of the Ca2+ transients from start to the peak of the signal. Ca2+ transients were recorded in control conditions and every 2 min (S36) or 4 min (GM1869) after drug application. **, P = 0.0065 for S36; ****, P = 0.000019 for GM1869, evaluated by paired Student's t-test. […] Decay times represent the tau values calculated by a mono-exponential fit of the Ca2+ transients from half maximum to baseline of the signal. Ca2+ transients were recorded in control conditions and every 2 min (S36) or 4 min (GM1869) after drug application. Data sets were analyzed by paired Student's t-test. n.s., P = 0.14; **, P = 0.0043. […] Data from each experiment were normalized to the first transient recorded. […]

[3] = system: RyR2-R2474S+/- iPSC cardiomyocytes; experiment: Electrically induced Ca2+ transients in intact iPSC-derived cardiomyocytes, RyR2-R2474S+/-; assay type: cell-based, human; settings: estimated from non-linear fit; for IC50: read-out: IC50 values for the rise times of Ca2+ transients
From the text: as §2

[4] = system: saponin-permeabilized ventricular cardiomyocytes (sp-vCM) from WT mice; experiment: Ca2+ wave decay in saponin-permeabilized ventricular cardiomyocytes, WT mice; assay type: cell-based; settings: 10 µM, result in words
From the text: as §1

[5] = Homo sapiens, iPSC, read-out: EC50 values for the decay times of Ca2+ transients

Question: With `COc1ccc2c(c1)CN(CCCCN(CCCCC1(O)CC1)CCCCC1(O)CC1)CCS2` [Compound 14a, 1,1'-(((4-(7-Methoxy-2,3-dihydrobenzo[1,4-f]thiazepin-4(5H)-yl)butyl)azanediyl)bis(butane-4,1-diyl))bis(cyclopropan-1-ol)] as the compound, how does the “Relative changes in the decay time tau of Ca2+ transients from spontaneous Ca2+ waves (in control/drug)” value (shortened to “Relative changes … (in control/drug)”) [1] read?
Answer: significantly below 1

Question: What about the EC50 [2, 5] of the same compound?
Answer: 97 pM

Question: What about the IC50 ([2]; Homo sapiens, iPSC) of the same compound?
Answer: 25 pM

Question: What about the EC50 [3, 5] of the same compound?
Answer: 71 pM

Question: And the IC50 ([3]; Homo sapiens, iPSC)?
Answer: 45 pM

Question: And the “Relative changes … (in control/drug)” value [4]?
Answer: significantly below 1

Question: Which “Relative changes … (in control/drug)” value [1] does the source give for `COc1ccc2c(c1)CN(C(=O)C(=O)O)CCS2` [Compound S36, reference compound] here?
Answer: not significantly different from 1

Question: What about the IC50 ([2]; Homo sapiens, iPSC) of the same compound?
Answer: 150 pM

Question: What about the “EC50 values for the decay times of Ca2+ transients” value [2] of the same compound?
Answer: no EC50 values were obtained

Question: What about the IC50 ([3]; Homo sapiens, iPSC) of the same compound?
Answer: 40 pM

Question: What about the “EC50 values for the decay times of Ca2+ transients” value [3] of the same compound?
Answer: no EC50 values were obtained

Question: What about the “Relative changes … (in control/drug)” value [4] of the same compound?
Answer: not significantly different from 1
